Calls of active or inactive are those of the source. The rule behind the calls is not given here.
Target: Ubiquitin-conjugating enzyme E2 N (Homo sapiens) (UniProt P61088)
Assay: NMR detection of UBE2N ligand binding – biophysical, purified protein (AID 1552)
Conditions: NMR binding to purified UBE2N

Sequence of Ubiquitin-conjugating enzyme E2 N (Homo sapiens) (P61088 whole entry, looked up): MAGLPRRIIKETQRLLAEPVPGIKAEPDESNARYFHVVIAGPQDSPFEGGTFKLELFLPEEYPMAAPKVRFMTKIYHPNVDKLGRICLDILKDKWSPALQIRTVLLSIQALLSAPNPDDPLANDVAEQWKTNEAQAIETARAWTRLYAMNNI

SMILES | Kd
O=C(O)c1ccc2c(c1)OCO2 | > 4 mM (inactive)
Nc1ccnc(C(=O)O)c1 | > 4 mM (inactive)
Nc1ccc2c(c1)S(=O)(=O)C=C2 | > 4 mM (inactive)
O=C(O)CSc1nnc(-c2cccs2)o1 | > 4 mM (inactive)
O=C(Nc1cccnc1)c1ccc(Br)s1 | > 4 mM (inactive)
C/C(O)=c1/sc2cc(C)nc(=N)n2c1=O | > 4 mM (inactive)
CCCc1cc(=O)[nH]c2nnc(SCC(C)=O)n12 | > 4 mM (inactive)
S=c1nc(C2CC2)[nH]c2ccccc12 | > 4 mM (inactive)
O=C(O)c1ccc(-c2cccs2)cc1 | > 4 mM (inactive)
CN1C(=O)C2C=CC1C1C(=O)N(c3ccccc3)C(=O)C21 (stereo unspecified) | > 4 mM (inactive)
CC(C)(C)NC(=O)N1CCC(C(=O)O)CC1 | > 4 mM (inactive)
Cc1cc(C(=O)Nc2nnc(C(F)(F)F)s2)no1 | > 4 mM (inactive)
C=C[C@@](C)(O)CCC1C(=C)CCC2[C@@](C)(CO)CCC[C@]12C (stereo partly specified) | > 4 mM (inactive)
CCOC(=O)C1CCN(Cc2ccccc2)CC1 | > 4 mM (inactive)
O=C(/C=C/c1ccccc1)c1ccc(O)cc1 | > 4 mM (inactive)
Cc1cc(C)n(CC(=O)NC2CCCCC2)n1 | > 4 mM (inactive)
CN1C(=O)c2ccc(N=C3NC(=O)CS3)cc2C1=O | > 4 mM (inactive)
Nc1c(N2CCCC2)cnn(-c2ccccc2)c1=O | > 4 mM (inactive)
CN1CCC(NC(=S)NC2CC2)CC1 | > 4 mM (inactive)
CN1CCN(C(=O)c2ccco2)CC1 | > 4 mM (inactive)
CC(=O)Oc1ccc2c(c1OC(C)=O)OCC1(O)Cc3c(cc(OC(C)=O)c(OC(C)=O)c3OC(C)=O)C21 (stereo unspecified) | > 4 mM (inactive)
O=C(Nc1nnc(-c2ccccc2Cl)o1)c1ccco1 | > 4 mM (inactive)
Cn1c(=O)c2cn3ncccc3c2n(C)c1=O | > 4 mM (inactive)
O=C(Nc1nncs1)C1(c2ccccc2)CCCC1 | > 4 mM (inactive)
O=C(O)CC1Sc2ccccc2NC1=O (stereo unspecified) | > 4 mM (inactive)

SMILES | Kd
NC(=O)CSc1nc2[nH]ncc2c(=O)[nH]1 | > 4 mM (inactive)
COC(=O)c1ccccc1NC(=O)c1cc[n+]([O-])cc1 | > 4 mM (inactive)
O=C1OCCC1Sc1nc2ccccc2c(=O)[nH]1 (stereo unspecified) | > 4 mM (inactive)
O=C(O)CS(=O)(=O)c1ccccc1[N+](=O)[O-] | > 4 mM (inactive)
Cc1ccc(NC(=O)/C=C2\SC(=O)NC2=O)cc1 | > 4 mM (inactive)
Cc1csc(CCc2nc(C)cs2)n1 | > 4 mM (inactive)
O=C(/C=C/c1ccc(O)cc1)c1ccc(O)cc1O | > 4 mM (inactive)
Clc1ccc(-c2noc(CN3CCCC3)n2)cc1 | > 4 mM (inactive)
Cc1cc(C(=O)Nc2ccon2)cs1 | > 4 mM (inactive)
OCc1ccc2c(c1)CCO2 | > 4 mM (inactive)
Cc1cc(NS(=O)(=O)Cc2ccccc2)no1 | > 4 mM (inactive)
c1ccc(CNc2ncnc3nc[nH]c23)nc1 | > 4 mM (inactive)
Cc1ccc(C2NS(=O)(=O)N=C2N)cc1 (stereo unspecified) | > 4 mM (inactive)
O=C(O)CCC1NCC2CC1CN1CCCCC21 (stereo unspecified) | > 4 mM (inactive)
NC(=O)c1c(Cl)nsc1-c1ccccc1Cl | > 4 mM (inactive)
NC1=NC(=O)/C(=C\c2ccccc2)S1 | > 4 mM (inactive)
O=C(CCc1ccc(O)cc1)c1c(O)cc(O)cc1O[C@@H]1O[C@H](CO)[C@@H](O)[C@H](O)[C@H]1O | > 4 mM (inactive)
Cc1ccccc1CSc1nncn1N | > 4 mM (inactive)
Nc1nc(SCc2ccccc2)ns1 | > 4 mM (inactive)
COc1ccc2nc(SCC(N)=O)[nH]c2c1 | > 4 mM (inactive)
O=C(O)CCC(=O)Nc1nnc(C(F)(F)F)s1 | > 4 mM (inactive)
C=C[C@H]1CN2CC[C@H]1C[C@H]2[C@H](O)c1ccnc2ccccc12 | > 4 mM (inactive)
COc1ccc2c(c1OC)C(=O)OC2[C@H]1c2c(cc3c(c2OC)OCO3)CCN1C (stereo partly specified) | > 4 mM (inactive)
Nc1ncnc(NC2CCS(=O)(=O)C2)c1[N+](=O)[O-] (stereo unspecified) | > 4 mM (inactive)
COc1c(OC)c2occc2c2oc(=O)ccc12 | > 4 mM (inactive)

SMILES | Kd
Nc1scc[n+]1CC(=O)[O-] | > 4 mM (inactive)
CC1CCN(C(=O)c2cc3ccccc3o2)CC1 | > 4 mM (inactive)
CC(=O)O[C@@H]1CC2C(C)(C)[C@H](O)CC[C@]2(C)C2CC[C@@]3(C)[C@H](c4ccoc4)OC(=O)C4OC43[C@@]21C (stereo partly specified) | > 4 mM (inactive)
COc1ccc(-c2ccc(SCC(N)=O)nn2)cc1 | > 4 mM (inactive)
COc1ccc(/C=C2\SC(N)=NC2=O)cc1 | > 4 mM (inactive)
Cc1ccc(SCc2nc(-c3cccnc3)no2)cc1 | > 4 mM (inactive)
Cc1nnc(SCC(=O)N2CCc3ccccc32)s1 | > 4 mM (inactive)
Cc1occc(=O)c1O | > 4 mM (inactive)
COc1cc(C(=S)N2CCC(C(N)=O)CC2)ccc1O | > 4 mM (inactive)
CC1(O)CC2C(CC1O)C2(C)C (stereo unspecified) | > 4 mM (inactive)
O=S(=O)(Nc1cccc2cn[nH]c12)c1ccc(F)cc1 | > 4 mM (inactive)
O=C(O)C1CNc2ccccc2O1 (stereo unspecified) | > 4 mM (inactive)
Cc1ccccc1-n1c(-c2cccnc2)n[nH]c1=S | > 4 mM (inactive)
O=C(O)C1=CCCNC1 | > 4 mM (inactive)
CCOc1ccc(C)cc1S(=O)(=O)n1ccnc1 | > 4 mM (inactive)
C=C1CCC2C(CC2(C)C)C(=C)CC/C1=N/O (stereo unspecified) | > 4 mM (inactive)
O=C(O)c1cc2ccccc2o1 | > 4 mM (inactive)
COc1ccc(C2=CC(=O)C=CC2=O)cc1 | > 4 mM (inactive)
CNC(=O)c1cccc(NC(=S)NC)c1 | > 4 mM (inactive)
CCc1cc2c(SCC(=O)O)ncnc2s1 | > 4 mM (inactive)
CSc1n[nH]c(NCc2cccs2)n1 | > 4 mM (inactive)
CN(c1ccc(C(=O)N2CCCCC2)cc1)S(C)(=O)=O | > 4 mM (inactive)
O=C(NC1=NCCS1)c1cccc(F)c1 | > 4 mM (inactive)
CN1C2CC3C[C@H]1C(O3)C2O (stereo partly specified) | > 4 mM (inactive)
O=S1(=O)CCC(NC(=S)Nc2ccccc2)C1 (stereo unspecified) | > 4 mM (inactive)

SMILES | Kd
Cn1c(O)c(C=NCC2CCNCC2)c(=O)n(C)c1=O | > 4 mM (inactive)
COC(=O)c1cnccc1C(F)(F)F | > 4 mM (inactive)
Nc1ccc(-c2cnco2)cc1 | > 4 mM (inactive)
CC(=O)O[C@@H]1CC2C(C)(C)[C@H](O)C=C[C@]2(C)C2CC[C@]3(C)C(=CC(=O)O[C@H]3c3ccoc3)[C@@]21C (stereo partly specified) | > 4 mM (inactive)
CN(C(=O)c1cc2cccnc2n(C)c1=O)c1ccccc1 | > 4 mM (inactive)
CC(C)CC(=O)Nc1c[nH]c(=O)[nH]c1=O | > 4 mM (inactive)
O=C(CNC(=O)c1ccc(F)cc1)NC1=NCCS1 | > 4 mM (inactive)
NC(=O)C1CCN(C(=O)CN2CCc3ccccc32)CC1 | > 4 mM (inactive)
CC(=O)c1cccc(NS(=O)(=O)N(C)C)c1 | > 4 mM (inactive)
O=CN1CCN(C(=O)c2ccccc2F)CC1 | > 4 mM (inactive)
CCc1cccc(C)c1NC(=O)c1cc(C)oc1C | > 4 mM (inactive)
CC(=O)O[C@H]1C(=O)[C@@]2(C)C([C@H](OC(=O)c3ccccc3)[C@]3(O)C[C@H](OC(=O)[C@H](O)[C@@H](NC(=O)c4ccccc4)c4ccccc4)C(C)=C1C3(C)C)[C@]1(OC(C)=O)CO[C@@H]1C[C@@H]2O (stereo partly specified) | > 4 mM (inactive)
NCc1ccccc1N1CCOCC1 | > 4 mM (inactive)
C=CCNC(=O)c1ccc(Cl)cc1Cl | > 4 mM (inactive)
CCCOn1nnnc1-c1ccccc1 | > 4 mM (inactive)
O=C1CN(C(=O)CN2CCOCC2)c2ccccc2N1 | > 4 mM (inactive)
COc1ccc(Cl)cc1-c1nc(-c2ccncc2)no1 | > 4 mM (inactive)
O=C(Nc1ccccc1)Nc1ccccc1 | > 4 mM (inactive)
CC(C)CNc1cc(=O)n(C)c(=O)n1C | > 4 mM (inactive)
Cn1cnnc1SCC(=O)Nc1nccs1 | > 4 mM (inactive)
CCOc1ccc2ccccc2c1C(=O)N1CCOCC1 | > 4 mM (inactive)
O=C(O)CC(O)c1nc2ccccc2[nH]1 (stereo unspecified) | > 4 mM (inactive)
OCCCc1nc2ccc(C(F)(F)F)cc2[nH]1 | > 4 mM (inactive)
CC(=O)NC(=S)Nc1ccccc1N1CCOCC1 | > 4 mM (inactive)
O=C(Nc1ccncc1)Nc1ccc(F)cc1F | > 4 mM (inactive)

SMILES | Kd
O=C(c1ccc(Cl)c(F)c1F)N1CCCC1 | > 4 mM (inactive)
CC(=O)NC(C)(C)C1CC=C(C)/C(=N\O)C1 (stereo unspecified) | > 4 mM (inactive)
Oc1ccc2nonc2c1 | > 4 mM (inactive)
Cc1ccccc1OCC(=O)O | > 4 mM (inactive)
Cc1cc(=O)oc2c1c(C)nn2CN1CCN(C)CC1 | > 4 mM (inactive)
CC(C)=CCc1c2c(c3occ(-c4ccc(O)cc4)c(=O)c3c1O)C=CC(C)(C)O2 | > 4 mM (inactive)
COc1ccccc1N1C(=N)SCC1=O | > 4 mM (inactive)
CC1CCN(C(=O)c2ccc3c(c2)OCCO3)CC1 | > 4 mM (inactive)
COc1cc(OC)c2c(=O)c(-c3ccccc3)coc2c1 | > 4 mM (inactive)
CC(=O)OC(C)(C)[C@@H]1Cc2cc3ccc(=O)oc3cc2O1 | > 4 mM (inactive)
NC1CCN(Cc2ccccc2)CC1 | > 4 mM (inactive)
COc1ccc(-c2nc3nc(C)cc(C)n3n2)cc1 | > 4 mM (inactive)
O=c1ccn(Cc2ccccc2)c(=O)[nH]1 | > 4 mM (inactive)
O=C(CCc1n[nH]c(=O)[nH]c1=O)NCc1ccccc1 | > 4 mM (inactive)
COC(=O)Cc1cccc(OC)c1 | > 4 mM (inactive)
CC1Cc2nc(SCC(N)=O)n(C)c(=O)c2S1 (stereo unspecified) | > 4 mM (inactive)
O=C(c1cccs1)N1CCCc2ccccc21 | > 4 mM (inactive)
CNC(=O)c1ccccc1-c1ccccc1 | > 4 mM (inactive)
CC(C)=CC(=O)Nc1ccc2c(c1)OCO2 | > 4 mM (inactive)
Cc1cc2ncc(C(=O)O)c(C)n2n1 | > 4 mM (inactive)
O=C(NCN1CCOCC1)c1cnccn1 | > 4 mM (inactive)

— PubChem BioAssay AID1552 (Sanford-Burnham Center for Chemical Genomics, 2009)
